Data reported in BindingDB's records for doi:10.1128/AAC.01184-06 (University of California, 2007).

Assay: Protection against Bacillus anthracis lethal toxin-mediated cytotoxicity in mouse RAW264.7 cells assessed as change in viability after 24 hrs by WST1 dye reduction assay

SMILES | IC50
CC(C)COC[C@H](CN(Cc1ccccc1)c1ccccc1)N1CCCC1 | 4800 nM
CN(C)CCCn1cc(C2=C(c3c[nH]c4ccccc34)C(=O)NC2=O)c2ccccc21 [2-[1-(3-dimethylaminopropyl)-indol-3-yl]-3-(indol-3-yl)maleimide] | 1500 nM
CCCCCCCCCCCCC/C=C/[C@@H](O)[C@H](CO)N(C)C [(E)-(2S,3R)-2-Dimethylamino-octadec-4-ene-1,3-diol] | 2300 nM
